Reference: patent publication US8592407B2, “Pyrrolo[2,1-c][1,4] benzodiazepine derivatives with dithiocarbamate side chains and process for the preparation thereof” (Council of Scientific & Industrial Research, priority 2008, dated 2013)

Tests used:
[1] = tested on: sixty human tumour cell lines; test: cells; details: read-out: GI50 value against sixty cell lines in nine cell panels
Protocol: For each compound, dose response curves for each cell line were measured at a minimum of five concentrations at 10 fold dilutions. A protocol of 48 h continuous drug exposure was used and a sulforhodamine B (SRB) protein assay was used to estimate cell viability or growth. The concentration causing 50% cell growth inhibition (G150), total cell growth inhibition (TGI 0% growth) and 50% cell death (LC50, −50% growth) compared with the control was calculated.

Neuroblastoma IMR-32 = details: human
Colon 502713 = details: human
Colon HCT-15 = details: human
Ovary OVCAR-5 = details: human

Row | Structure (SMILES) | GI50 [1] [nM] | Preliminary in vitro cytotoxicity data (Neuroblastoma IMR-32) | Preliminary in vitro cytotoxicity data (Colon 502713) [%] | Preliminary in vitro cytotoxicity data (Colon HCT-15) [%] | Preliminary in vitro cytotoxicity data (Ovary OVCAR-5) [%]
1 | COc1cc2c(cc1OCCCN1CCN(C(=S)SCCC(C#N)(c3ccccc3)c3ccccc3)CC1)N=C[C@@H]1CCCN1C2=O [Compound 12b, 3-cyano-3,3-diphenylpropyl 4-(3-[(11aS)-7-(methyloxy)-5-oxo-2,3,5,11a-tetrahydro-1H-benzo[e]pyrrolo[1,2-a][1,4]diazepin-8-yl]oxypropyl)hexahydro-1-pyrazinecarbodithioate] | < 2690 | – | – | – | –
2 | COc1cc2c(cc1OCCCCN1CCN(C(=S)SCCC(C#N)(c3ccccc3)c3ccccc3)CC1)N=C[C@@H]1CCCN1C2=O [Compound 12c, 3-cyano-3,3-diphenylpropyl 4-(4-[(11aS)-7-(methyloxy)-5-oxo-2,3,5,11a-tetrahydro-1H-benzo[e]pyrrolo[1,2-a][1,4]diazepin-8-yl]oxybutyl)hexahydro-1-pyrazinecarbodithioate] | – | 88 | 75 | 75 | 24
